{"source": "ChEMBL document CHEMBL5038569", "about": "“Targeting RECQL5 Functions, by a Small Molecule, Selectively Kills Breast Cancer in Vitro and in Vivo” (J Med Chem, 2021)", "key": {"MCF7 [1]": {"tested_on": "MCF7", "assay": "Inhibition of homologous recombinant repair in human MCF7 cells expressing RECQL5 wildtype/ SceGFP/iGFP mutants assessed as I-SceI induced generation of resected double stand breaks by measuring GFP-expressing cells at 10 uM measured after 48 hrs by flow cytometry analysis", "format": "functional, cell-based"}, "[2]": {"assay": "Toxicity in nude mouse xenografted with human MCF7 cells assessed as morphological changes in kidney at 50 mg/kg, po administered via oral gavage and measured after 30 days", "format": "organism-based", "details": "in vivo, 720 h, time 30 day"}, "[3]": {"assay": "Selectivity ratio of IC20 for cytotoxicity against human MCF-10A cells expressing RECQL5 to IC20 for cytotoxicity against human MCF7 cells expressing RECQL5", "format": "toxicity, cell-based"}, "MCF7 [4]": {"tested_on": "MCF7", "assay": "Inhibition of homologous recombinant repair in human MCF7 cells expressing RECQL5 wildtype assessed as stabilization of RAD51-RECQL5 interaction by measuring increase in RAD51 foci formation at 20 uM measured after 4 to 24 hrs by immunofluorescence microscopic analysis", "format": "functional, cell-based", "details": "time 4-24 hrs"}, "[5]": {"assay": "Toxicity in […] mouse assessed as fold change in creatinine level at 100 mg/kg, po administered as single dose via gavage measured after 30 days relative to control", "format": "organism-based", "details": "in vivo, 720 h, time 30 day"}, "[6]": {"assay": "Toxicity in […] mouse assessed as fold change in alkaline phosphatase level at 100 mg/kg, po administered as single dose via gavage measured after 30 days relative to control", "format": "organism-based", "details": "in vivo, 720 h, time 30 day"}, "MCF7 [7]": {"tested_on": "MCF7", "assay": "Induction of DNA damage in human MCF7 cells expressing wild type RECQL5 assessed as double strand breaks by measuring increase in phosphorylation of RPA2 at 20 uM measured after 4 to 24 hrs by Western blot analysis", "format": "functional, cell-based", "details": "time 4-24 hrs, TDE = time-dependent effect"}, "T47D": {"tested_on": "T47D", "assay": "Cytotoxicity against ER/PR-positive HER2-negative CRISPR/Cas9 engineered human T47D cells expressing wild type RECQL5 and p53 mutant assessed as reduction in colony formation measured after 8 to 10 days by clonogenic survival assay", "format": "functional, cell-based", "details": "time 8-10 day"}, "[8]": {"assay": "Inhibition of ds-DNA dependent human RECQL5 ATPase activity measured after 60 mins by luciferin-based multiplate reader method"}, "[9]": {"assay": "Toxicity in nude mouse xenografted with human MCF7 cells assessed as body weight loss at 50 mg/kg, po administered via oral gavage for 30 days and measured every 5 days", "format": "organism-based", "details": "in vivo, 720 h, time 30 day"}, "[10]": {"assay": "Toxicity in nude mouse xenografted with human MCF7 cells assessed as morphological changes in spleen at 50 mg/kg, po administered via oral gavage and measured after 30 days", "format": "organism-based", "details": "in vivo, 720 h, time 30 day"}, "MCF7 [11]": {"tested_on": "MCF7", "assay": "Cytotoxicity against human MCF7 cells with shRNA-mediated WRN depletion assessed as reduction in cell viability at 6 to 25 uM measured after 8 to 10 days by clonogenic survival assay", "format": "functional, cell-based", "details": "dose 6-25 µM, time 8-10 day"}, "MCF7 [12]": {"tested_on": "MCF7", "assay": "Induction of apoptosis in human MCF7 cells expressing wild type RECQL5 assessed as increase in sub-G1 cell population measured after 72 hrs by propidium iodide/RNase A staining based flow cytometric analysis", "format": "functional", "details": "dose 2.5-20 µM"}, "MCF7 [13]": {"tested_on": "MCF7", "assay": "Induction of apoptosis in RECQL5 knock out human MCF7 cells assessed as increase in sub-G1 cell population measured after 72 hrs by propidium iodide/RNase A staining based flow cytometric analysis", "format": "functional", "details": "dose 2.5-20 µM"}, "MCF7 [14]": {"tested_on": "MCF7", "assay": "Induction of DNA damage in RECQL5 knock out human MCF7 cells assessed as double strand breaks by measuring increase in gamma-H2AX foci formation incubated for 24 hrs by immunofluorescence microscopic analysis", "format": "functional, cell-based"}, "MCF7 [15]": {"tested_on": "MCF7", "assay": "Induction of DNA damage in human MCF7 cells expressing wild type RECQL5 assessed as double strand breaks by measuring increase in phosphorylation of ATM at S1981 residue at 20 uM measured up to 24 hrs by Western blot analysis", "format": "functional, cell-based", "details": "time hrs <=24"}, "MCF7 [16]": {"tested_on": "MCF7", "assay": "Induction of DNA damage in human MCF7 cells expressing wild type RECQL5 assessed as double strand breaks by measuring increase in phosphorylation of p53 at S15 residue at 20 uM measured up to 24 hrs by Western blot analysis", "format": "functional, cell-based", "details": "time hrs <=24"}, "MCF7 [17]": {"tested_on": "MCF7", "assay": "Induction of DNA damage in RECQL5 knock out human MCF7 cells assessed as double strand breaks by measuring increase in phosphorylation of CHK2 at T68 residue at 20 uM measured up to 24 hrs by Western blot analysis", "format": "functional, cell-based", "details": "time hrs <=24"}, "MCF7 [18]": {"tested_on": "MCF7", "assay": "Induction of DNA damage in RECQL5 knock out human MCF7 cells assessed as double strand breaks by measuring increase in phosphorylation of CHK1 at S345 residue at 20 uM measured up to 24 hrs by Western blot analysis", "format": "functional, cell-based", "details": "time hrs <=24"}, "MCF7 [19]": {"tested_on": "MCF7", "assay": "Effect on NHEJ-mediated double strand break repair in RECQL5 knock out human MCF7 cells assessed as accumulation of KU80 on chromatin at 20 uM measured up to 24 hrs by Western blot analysis", "format": "cell-based", "details": "time hrs <=24"}, "MCF7 [20]": {"tested_on": "MCF7", "assay": "Effect on NHEJ-mediated double strand break repair in human MCF7 cells expressing wild type RECQL5 assessed as accumulation of DNA-dependent protein kinase on chromatin at 20 uM measured up to 24 hrs by Western blot analysis", "format": "cell-based", "details": "time hrs <=24"}, "MCF7 [21]": {"tested_on": "MCF7", "assay": "Effect on NHEJ-mediated double strand break repair in RECQL5 knock out human MCF7 cells assessed as accumulation of DNA-dependent protein kinase on chromatin at 20 uM measured up to 24 hrs by Western blot analysis", "format": "cell-based", "details": "time hrs <=24"}, "MCF7 [22]": {"tested_on": "MCF7", "assay": "Effect on homologous recombinant repair in human MCF7 cells expressing wild type RECQL5 assessed as accumulation of MRE11 protein on chromatin at 20 uM incubated for 4 to 24 hrs by Western blot analysis", "format": "functional, cell-based", "details": "time 4-24 hrs, TDE = time-dependent effect"}, "MCF7 [23]": {"tested_on": "MCF7", "assay": "Effect on homologous recombinant repair in human MCF7 cells expressing wild type RECQL5 assessed as accumulation of RAD50 protein on chromatin at 20 uM incubated for 4 to 24 hrs by Western blot analysis", "format": "functional, cell-based", "details": "time 4-24 hrs, TDE = time-dependent effect"}, "[24]": {"target": "T1, DNA repair protein RAD51 homolog 1 (Homo sapiens) (UniProt Q06609)", "T1 sequence (whole entry)": "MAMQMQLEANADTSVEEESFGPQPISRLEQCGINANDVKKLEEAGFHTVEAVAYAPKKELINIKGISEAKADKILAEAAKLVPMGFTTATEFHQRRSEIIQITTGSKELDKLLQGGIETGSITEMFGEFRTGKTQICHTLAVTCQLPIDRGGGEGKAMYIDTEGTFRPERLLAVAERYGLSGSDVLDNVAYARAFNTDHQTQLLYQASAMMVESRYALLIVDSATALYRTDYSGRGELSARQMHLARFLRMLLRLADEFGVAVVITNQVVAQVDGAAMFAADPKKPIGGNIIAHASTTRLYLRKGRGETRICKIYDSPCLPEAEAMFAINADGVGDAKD", "assay": "Stabilization of RAD51 foci in human MCF7 cells assessed as increase in RAD51 positive cells at 20 uM pretreated with cisplatin for 8 hrs followed by compound addition and measured after 24 hrs by immunofluorescence microscopic analysis", "format": "cell-based"}, "[25]": {"target": "T1, DNA repair protein RAD51 homolog 1 (Homo sapiens)", "assay": "Stabilization of RAD51 foci in human cisplatin-resistant MCF7 cells assessed as increase in RAD51 positive cells at 20 uM pretreated with cisplatin for 8 hrs followed by compound addition and measured after 24 hrs by immunofluorescence microscopic analysis", "format": "cell-based"}, "MCF7 [26]": {"tested_on": "MCF7", "assay": "Induction of mitotic catastrophe phenotype in human MCF7 cells assessed as nuclear bridge formation at 20 uM pretreated with cisplatin for 8 hrs followed by compound addition and measured after 24 hrs by immunofluorescence microscopic analysis", "format": "functional, cell-based"}}, "note": "Activity calls are given as the source filed them. The calls are words filed in the database; no cut-off is given here.", "data": [{"smiles": "O=C(Nc1cc(C(F)(F)F)cc(C(F)(F)F)c1)N[C@@H](c1ccccc1)c1nnc(SCc2ccccc2)o1", "values": [{"measurement": "inhibition", "setting": "MCF7 [1]", "value": "Active"}, {"measurement": "Activity", "setting": "[2]", "value": "Non-Toxic"}, {"measurement": "selectivity ratio", "setting": "[3]", "value": 4}, {"measurement": "inhibition", "setting": "MCF7 [4]", "value": "Active"}, {"measurement": "fold change (FC)", "setting": "[5]", "value": 1.05}, {"measurement": "fold change (FC)", "setting": "[6]", "value": 0.97}, {"measurement": "Activity", "setting": "MCF7 [7]", "value": "Tde"}, {"measurement": "Activity", "setting": "T47D", "value": "Active"}, {"measurement": "IC50", "setting": "[8]", "value": 23.9, "unit": "µM"}, {"measurement": "Activity", "setting": "[9]", "value": "Non-Toxic"}, {"measurement": "Activity", "setting": "[10]", "value": "Non-Toxic"}, {"measurement": "Activity", "setting": "MCF7 [11]", "value": "Active"}, {"measurement": "Activity", "setting": "MCF7 [12]", "value": "Dose-Dependent Effect"}, {"measurement": "Activity", "setting": "MCF7 [13]", "value": "Dose-Dependent Effect"}, {"measurement": "Activity", "setting": "MCF7 [14]", "value": "inactive"}, {"measurement": "Activity", "setting": "MCF7 [15]", "value": "Active"}, {"measurement": "Activity", "setting": "MCF7 [16]", "value": "Active"}, {"measurement": "Activity", "setting": "MCF7 [17]", "value": "inactive"}, {"measurement": "Activity", "setting": "MCF7 [18]", "value": "inactive"}, {"measurement": "Activity", "setting": "MCF7 [19]", "value": "inactive"}, {"measurement": "Activity", "setting": "MCF7 [20]", "value": "inactive"}, {"measurement": "Activity", "setting": "MCF7 [21]", "value": "inactive"}, {"measurement": "Activity", "setting": "MCF7 [22]", "value": "Tde"}, {"measurement": "Activity", "setting": "MCF7 [23]", "value": "Tde"}, {"measurement": "Activity", "setting": "[24]", "value": "Active"}, {"measurement": "Activity", "setting": "[25]", "value": "Active"}, {"measurement": "Activity", "setting": "MCF7 [26]", "value": "Active"}]}]}
